Test results as given in ChEMBL document CHEMBL2086350, “Structure-activity relationship and antitumor activity of thio-benzodiazepines as p53-MDM2 protein-protein interaction inhibitors” (Eur J Med Chem, 2012).

Assays:
[1] = system: U2OS; experiment: Antiproliferative activity against human U2OS cells expressing wild type p53 after 72 hrs by MTT assay
[2] = system: SAOS-2; experiment: Antiproliferative activity against human p53-deficient Saos2 cells after 72 hrs by MTT assay; conditions: SAOS-2, 72 h
[3] = system: A549; experiment: Antiproliferative activity against human A549 cells expressing wild type p53 after 72 hrs by MTT assay; conditions: A549, 72 h
[4] = system: NCI-H1299; experiment: Antiproliferative activity against human p53-deficient NCI-H1299 cells after 72 hrs by MTT assay; conditions: NCI-H1299, 72 h
[5] = biological target: E3 ubiquitin-protein ligase Mdm2 (Homo sapiens, UniProt Q00987); experiment: Inhibition of MDM2 binding domain assessed as inhibition of p53 binding to MDM2 after 1 hr by fluorescence polarization assay
Sequence of E3 ubiquitin-protein ligase Mdm2 (Q00987 whole entry, the tested form may be a part): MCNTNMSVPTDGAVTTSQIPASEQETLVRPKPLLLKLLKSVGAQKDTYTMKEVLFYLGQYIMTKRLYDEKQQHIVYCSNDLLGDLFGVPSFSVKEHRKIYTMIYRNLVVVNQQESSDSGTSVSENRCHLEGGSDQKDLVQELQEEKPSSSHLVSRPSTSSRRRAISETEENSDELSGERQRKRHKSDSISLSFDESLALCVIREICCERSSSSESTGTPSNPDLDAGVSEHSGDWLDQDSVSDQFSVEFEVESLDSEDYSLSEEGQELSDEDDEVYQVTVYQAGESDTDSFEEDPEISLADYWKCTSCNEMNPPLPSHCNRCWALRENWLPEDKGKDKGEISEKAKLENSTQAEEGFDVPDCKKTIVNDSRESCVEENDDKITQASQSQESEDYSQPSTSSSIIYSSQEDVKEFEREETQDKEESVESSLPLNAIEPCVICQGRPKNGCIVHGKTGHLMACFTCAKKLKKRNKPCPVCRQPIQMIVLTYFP

Compound: COC(=O)C(c1ccc(Cl)cc1)N1C(=O)c2ccc(NCc3ccc(C(F)(F)F)cc3)cc2NC(=S)C1c1ccc(Cl)cc1 (centres undefined)
- IC50 [1]: 15.9 µM
- IC50 [2]: 25.3 µM
- IC50 [3]: 25.7 µM
- IC50 [4]: 42.6 µM
- Ki [5]: 6.7 µM

Compound: COC(=O)C(c1ccc(Cl)cc1)N1C(=O)c2ccc(Cl)cc2NC(=S)C1c1ccc(Cl)cc1 (centres undefined)
- IC50 [1]: 12.1 µM
- IC50 [2]: 11.1 µM
- IC50 [3]: 37.2 µM
- IC50 [4]: 16.5 µM
- Ki [5]: 1.37 µM

Compound: COC(=O)C(c1ccc(Cl)cc1)N1C(=O)c2cccc(Cl)c2NC(=S)C1c1ccc(Cl)cc1 (centres undefined)
- IC50 [1]: 88.5 µM
- IC50 [2]: 61.8 µM
- IC50 [3]: > 100 µM
- IC50 [4]: > 100 µM
- Ki [5]: > 100 µM

Compound: COC(=O)C(c1ccc(Cl)cc1)N1C(=O)c2cc(Cl)ccc2NC(=S)C1c1ccc(Cl)cc1 (centres undefined)
- IC50 [1]: 3.5 µM
- IC50 [2]: 8.91 µM
- IC50 [3]: 18.7 µM
- IC50 [4]: 24.7 µM
- Ki [5]: 0.721 µM

Compound: COC(=O)C(c1ccc(Cl)cc1)N1C(=O)c2ccc(F)cc2NC(=S)C1c1ccc(Cl)cc1 (centres undefined)
- IC50 [1]: 12 µM
- IC50 [2]: 6.59 µM
- IC50 [3]: 8.44 µM
- IC50 [4]: 16.5 µM

Compound: COC(=O)C(c1ccc(Cl)cc1)N1C(=O)c2cc(F)c(F)cc2NC(=S)C1c1ccc(Cl)cc1 (centres undefined)
- IC50 [1]: 2.61 µM
- IC50 [2]: 3.84 µM
- IC50 [3]: 11.3 µM
- IC50 [4]: 5.73 µM
- Ki [5]: > 100 µM

Compound: COC(=O)C(c1ccc(F)cc1)N1C(=O)c2ccc(Cl)cc2NC(=S)C1c1ccc(F)cc1 (centres undefined)
- IC50 [1]: 44.3 µM
- IC50 [2]: 12.7 µM
- IC50 [3]: 25.6 µM
- IC50 [4]: > 100 µM
- Ki [5]: 1.72 µM

Compound: COC(=O)C(c1ccc(F)cc1)N1C(=O)c2cc(Cl)ccc2NC(=S)C1c1ccc(Cl)cc1 (centres undefined)
- IC50 [1]: 7.23 µM
- IC50 [2]: 6.48 µM
- IC50 [3]: 19.7 µM
- IC50 [4]: 29.7 µM

Compound: COC(=O)C(c1ccc(Cl)cc1)N1C(=O)c2cccc(OC)c2NC(=S)C1c1ccc(Cl)cc1 (centres undefined)
- IC50 [1]: > 100 µM
- IC50 [2]: > 100 µM
- IC50 [3]: > 100 µM
- IC50 [4]: > 100 µM
- Ki [5]: 8.18 µM

Compound: COC(=O)C(c1ccc(Cl)cc1)N1C(=O)c2ccc(C(F)(F)F)cc2NC(=S)C1c1ccc(Cl)cc1 (centres undefined)
- IC50 [1]: 5.69 µM
- IC50 [2]: 6.78 µM
- IC50 [3]: 26.9 µM
- IC50 [4]: 11.1 µM

Compound: COC(=O)C(c1ccc(F)cc1)N1C(=O)c2ccc(C(F)(F)F)cc2NC(=S)C1c1ccc(Cl)cc1 (centres undefined)
- IC50 [1]: 11.8 µM
- IC50 [2]: 13.7 µM
- IC50 [3]: 9.44 µM
- IC50 [4]: 14 µM
- Ki [5]: 3.02 µM

Compound: COC(=O)C(c1ccc(Cl)cc1)N1C(=O)c2ccc(OC)cc2NC(=S)C1c1ccc(Cl)cc1 (centres undefined)
- IC50 [1]: 35.3 µM
- IC50 [2]: 20 µM
- IC50 [3]: > 100 µM
- IC50 [4]: > 100 µM
- Ki [5]: > 100 µM

Compound: COC(=O)C(c1ccc(Cl)cc1)N1C(=O)c2cccc(C)c2NC(=S)C1c1ccc(Cl)cc1 (centres undefined)
- IC50 [1]: 27.8 µM
- IC50 [2]: 19.1 µM
- IC50 [3]: > 100 µM
- IC50 [4]: 73.3 µM
- Ki [5]: > 100 µM

Compound: COC(=O)C(c1ccc(Cl)cc1)N1C(=O)c2cc(C)ccc2NC(=S)C1c1ccc(Cl)cc1 (centres undefined)
- IC50 [1]: 32.7 µM
- IC50 [2]: 25.5 µM
- IC50 [3]: > 100 µM
- IC50 [4]: 73.6 µM
- Ki [5]: 37.7 µM

Compound: COC(=O)C(c1ccc(Cl)cc1)N1C(=O)c2cc(F)ccc2NC(=S)C1c1ccc(Cl)cc1 (centres undefined)
- IC50 [1]: 7.53 µM
- IC50 [2]: 11.9 µM
- IC50 [3]: 12.9 µM
- IC50 [4]: 14.5 µM

Compound: COC(=O)C(c1ccc(F)cc1)N1C(=O)c2ccc(F)cc2NC(=S)C1c1ccc(Cl)cc1 (centres undefined)
- IC50 [1]: 28 µM
- IC50 [2]: 32.1 µM
- IC50 [3]: 19.4 µM
- IC50 [4]: 25 µM
- Ki [5]: 1.05 µM

Compound: COC(=O)C(c1ccc(Cl)cc1)N1C(=O)c2ccc(Br)cc2NC(=S)C1c1ccc(Cl)cc1 (centres undefined)
- IC50 [1]: 35.7 µM
- IC50 [2]: 11 µM
- IC50 [3]: > 100 µM
- IC50 [4]: 35.4 µM
- Ki [5]: 3.98 µM

Compound: COC(=O)C(c1ccc(Cl)cc1)N1C(=O)c2ccc(Cl)cc2NC(=S)C1c1ccc(C(F)(F)F)cc1 (centres undefined)
- IC50 [1]: 27.4 µM
- IC50 [2]: 9.23 µM
- IC50 [3]: 23.7 µM
- IC50 [4]: 39.5 µM

Compound: COC(=O)C(c1ccc(Cl)cc1)N1C(=O)c2ccc(Cl)cc2NC(=S)C1c1ccc(OC)cc1 (centres undefined)
- IC50 [1]: 33.9 µM
- IC50 [2]: > 100 µM
- IC50 [3]: > 100 µM
- IC50 [4]: > 100 µM
- Ki [5]: 11.9 µM

Compound: COC(=O)C(c1ccc(Cl)cc1)N1C(=O)c2ccc(Cl)cc2N=C(SC)C1c1ccc(Cl)cc1 (centres undefined)
- IC50 [1]: 67.6 µM
- IC50 [2]: > 100 µM
- IC50 [3]: > 100 µM
- IC50 [4]: > 100 µM
- Ki [5]: > 100 µM

Compound: CCOC(=O)CSC1=Nc2cc(OC)ccc2C(=O)N(C(C(=O)OC)c2ccc(Cl)cc2)C1c1ccc(Cl)cc1 (centres undefined)
- IC50 [1]: > 100 µM
- IC50 [2]: > 100 µM
- IC50 [3]: > 100 µM
- IC50 [4]: > 100 µM
- Ki [5]: 21.1 µM

Compound: COc1ccc(C2=N[C@@H](c3ccc(Cl)cc3)[C@@H](c3ccc(Cl)cc3)N2C(=O)N2CCNC(=O)C2)c(OC(C)C)c1 [NUTLIN-3]
- IC50 [1]: 19.6 µM
- IC50 [2]: 12.1 µM
- IC50 [3]: 15 µM
- IC50 [4]: 20.4 µM
